Key:
JAK1 = molecular target: T1, JAK1 (Homo sapiens, UniProt P23458); test: JAK1 enzyme inhibition test (LANCE method); assay type: biochemical; conditions: test compound 1 μM; read-out: Inhibitory rate (%) JAK1 1 μM
T1 construct: purchased Invitrogen
Outline: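 TR-FRET (LANCE) kinase assay using JAK1 at 187.5 ng/mL, ULight-JAK1 peptide at 300 nM and ATP at 150 μM, given as solution concentrations before mixing. Buffer was 50 mM HEPES pH 7.5 with 10 mM MgCl2 and 2 mM DTT, and the reaction ran 1 h at room temperature. Eu anti-phosphotyrosine signal at 665 nm was expressed relative to a no-enzyme well, taken as 100% inhibition.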

Tyk2 = molecular target: T2, Tyk2 (Homo sapiens, UniProt P29597); test: Tyk2 enzyme inhibition test (LANCE method); assay type: biochemical; conditions: test compound 1 μM; read-out: Inhibitory rate (%) Tyk2 1 μM
T2 construct: purchased Invitrogen
T2 sequence (P29597 whole entry): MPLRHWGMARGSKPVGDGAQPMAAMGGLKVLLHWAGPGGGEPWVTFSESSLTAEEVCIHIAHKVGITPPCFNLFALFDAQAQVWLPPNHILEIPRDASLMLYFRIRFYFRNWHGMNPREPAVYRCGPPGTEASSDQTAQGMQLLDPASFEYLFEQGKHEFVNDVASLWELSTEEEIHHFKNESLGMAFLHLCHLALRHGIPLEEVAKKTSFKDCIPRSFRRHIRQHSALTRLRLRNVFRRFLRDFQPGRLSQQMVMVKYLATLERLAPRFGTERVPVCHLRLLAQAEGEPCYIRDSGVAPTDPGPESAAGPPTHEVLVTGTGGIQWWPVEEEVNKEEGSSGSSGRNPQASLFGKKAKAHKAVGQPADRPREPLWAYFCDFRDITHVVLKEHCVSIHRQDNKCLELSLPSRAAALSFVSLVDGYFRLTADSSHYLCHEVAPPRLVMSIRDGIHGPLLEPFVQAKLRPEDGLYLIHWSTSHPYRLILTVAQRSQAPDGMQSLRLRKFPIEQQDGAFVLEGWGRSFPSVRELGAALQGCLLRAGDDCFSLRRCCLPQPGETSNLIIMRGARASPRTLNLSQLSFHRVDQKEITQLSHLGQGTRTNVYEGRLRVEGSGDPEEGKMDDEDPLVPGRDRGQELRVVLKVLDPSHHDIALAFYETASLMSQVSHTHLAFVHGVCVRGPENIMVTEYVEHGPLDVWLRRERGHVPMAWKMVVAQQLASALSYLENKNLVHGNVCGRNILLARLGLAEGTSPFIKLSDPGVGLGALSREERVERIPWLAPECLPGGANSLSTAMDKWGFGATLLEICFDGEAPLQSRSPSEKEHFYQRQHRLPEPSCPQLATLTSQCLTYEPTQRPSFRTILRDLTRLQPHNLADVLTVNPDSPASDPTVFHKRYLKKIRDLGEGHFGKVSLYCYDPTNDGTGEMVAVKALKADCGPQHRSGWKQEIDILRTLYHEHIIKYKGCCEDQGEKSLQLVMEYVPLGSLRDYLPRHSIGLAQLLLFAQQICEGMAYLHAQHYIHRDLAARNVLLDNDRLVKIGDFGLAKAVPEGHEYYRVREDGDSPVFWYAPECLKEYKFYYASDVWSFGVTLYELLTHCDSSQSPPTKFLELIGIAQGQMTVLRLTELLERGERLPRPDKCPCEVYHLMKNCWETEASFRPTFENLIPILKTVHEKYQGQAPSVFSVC
Outline: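 Recombinant Tyk2 (375 ng/mL stock) with ULight-JAK1 peptide (300 nM stock) and ATP (30 μM stock) in HEPES pH 7.5/MgCl2/EGTA/DTT buffer, 1 h at room temperature. Stopped with EDTA plus Eu-anti-phosphotyrosine antibody; TR-FRET read at 665 nm after 1 h. No-enzyme wells define 100% inhibition.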

T1 sequence (P23458 whole entry): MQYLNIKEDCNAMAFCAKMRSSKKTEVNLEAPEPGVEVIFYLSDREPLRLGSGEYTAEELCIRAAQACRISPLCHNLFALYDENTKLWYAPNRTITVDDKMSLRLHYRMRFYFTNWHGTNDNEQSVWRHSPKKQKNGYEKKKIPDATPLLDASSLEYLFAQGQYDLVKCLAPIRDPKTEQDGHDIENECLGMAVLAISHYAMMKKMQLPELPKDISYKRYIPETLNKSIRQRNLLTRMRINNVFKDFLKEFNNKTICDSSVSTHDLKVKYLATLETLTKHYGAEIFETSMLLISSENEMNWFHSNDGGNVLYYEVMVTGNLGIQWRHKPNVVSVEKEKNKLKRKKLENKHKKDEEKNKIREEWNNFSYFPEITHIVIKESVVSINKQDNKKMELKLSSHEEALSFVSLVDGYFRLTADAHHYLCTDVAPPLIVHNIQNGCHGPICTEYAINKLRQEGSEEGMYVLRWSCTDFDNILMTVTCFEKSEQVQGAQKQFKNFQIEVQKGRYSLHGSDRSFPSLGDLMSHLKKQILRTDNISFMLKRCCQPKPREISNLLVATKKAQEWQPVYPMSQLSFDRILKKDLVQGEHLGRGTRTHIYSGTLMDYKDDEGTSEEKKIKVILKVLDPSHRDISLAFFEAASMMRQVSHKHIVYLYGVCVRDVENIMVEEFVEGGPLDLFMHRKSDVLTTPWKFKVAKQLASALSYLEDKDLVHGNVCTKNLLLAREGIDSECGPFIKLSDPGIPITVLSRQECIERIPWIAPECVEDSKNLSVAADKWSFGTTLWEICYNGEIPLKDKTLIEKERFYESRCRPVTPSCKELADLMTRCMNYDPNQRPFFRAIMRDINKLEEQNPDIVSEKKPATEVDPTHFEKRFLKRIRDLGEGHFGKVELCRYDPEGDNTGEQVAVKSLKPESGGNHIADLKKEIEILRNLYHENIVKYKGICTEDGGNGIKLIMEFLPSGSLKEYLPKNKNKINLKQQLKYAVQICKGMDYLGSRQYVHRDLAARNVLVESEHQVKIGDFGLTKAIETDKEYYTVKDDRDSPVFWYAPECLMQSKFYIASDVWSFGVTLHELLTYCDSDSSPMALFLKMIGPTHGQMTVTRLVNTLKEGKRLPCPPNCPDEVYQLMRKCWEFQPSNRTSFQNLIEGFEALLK

Compound	inhibition at 1 µM (JAK1) [%]	inhibition at 1 µM (Tyk2) [%]
N#Cc1cccc(F)c1-n1nc(-c2ccc(N3CCOCC3)nc2)c2c(=O)[nH]ccc21 [Example 306, 3-fluoro-2-(3-(6-(morpholin-4-yl)pyridin-3-yl)-4-oxo-4,5-dihydro-1H-pyrazolo[4,3-c]pyridin-1-yl)benzonitrile]	90	98
CNC(=O)c1ccc(-c2nn(-c3c(F)cccc3C#N)c3cc[nH]c(=O)c23)cc1 [Example 307, 4-(1-(2-cyano-6-fluorophenyl)-4-oxo-4,5-dihydro-1H-pyrazolo[4,3-c]pyridin-3-yl)-N-methylbenzamide]	92	99
O=c1[nH]ccc2c1c(-c1ccc(N3CCOCC3)cc1)nn2-c1c(F)cc(F)cc1F [Example 308, 3-(4-(morpholin-4-yl)phenyl)-1-(2,4,6-trifluorophenyl)-1,5-dihydro-4H-pyrazolo[4,3-c]pyridin-4-one]	91	98
O=c1[nH]ccc2c1c(-c1ccc(N3CCOCC3)nc1)nn2-c1c(F)cccc1F [Example 309, 1-(2,6-difluorophenyl)-3-(6-(morpholin-4-yl)pyridin-3-yl)-1,5-dihydro-4H-pyrazolo[4,3-c]pyridin-4-one]	93	99
CS(=O)(=O)N1CCN(c2ccc(-c3nn(-c4c(F)cccc4F)c4cc[nH]c(=O)c34)cc2)CC1 [Example 311, 1-(2,6-difluorophenyl)-3-(4-(4-(methylsulfonyl)piperazin-1-yl)phenyl)-1,5-dihydro-4H-pyrazolo[4,3-c]pyridin-4-one]	95	99
CC1(C)CCCC1n1nc(-c2ccc(N3CCOCC3)cc2)c2c(=O)[nH]ccc21 (stereo not drawn) [Example 314, 1-(2,2-dimethylcyclopentyl)-3-(4-(morpholin-4-yl)phenyl)-1,5-dihydro-4H-pyrazolo[4,3-c]pyridin-4-one]	95	99
N#Cc1cccc(F)c1-n1nc(-c2cn[nH]c2)c2c(=O)[nH]ccc21 [Example 315, 3-fluoro-2-(4-oxo-3-(1H-pyrazol-4-yl)-4,5-dihydro-1H-pyrazolo[4,3-c]pyridin-1-yl)benzonitrile]	97	98
O=c1[nH]ccc2c1c(-c1ccc(N3CCOCC3)cc1)nn2C1CCCCC1(F)F (stereo not drawn) [Example 317, 1-(2,2-difluorocyclohexyl)-3-(4-(morpholin-4-yl)phenyl)-1,5-dihydro-4H-pyrazolo[4,3-c]pyridin-4-one]	96	99

Next, values leading:

inhibition at 1 µM (JAK1) [%]	inhibition at 1 µM (Tyk2) [%]	Compound
93	100	CNC(=O)C1CCN(c2ccc(-c3nn(-c4c(F)cccc4F)c4cc[nH]c(=O)c34)cc2)CC1 [Example 310, 1-(4-(1-(2,6-difluorophenyl)-4-oxo-4,5-dihydro-1H-pyrazolo[4,3-c]pyridin-3-yl)phenyl)-N-methylpiperidine-4-carboxamide]
94	99	O=C(CO)N1CCN(c2ccc(-c3nn(-c4c(F)cccc4F)c4cc[nH]c(=O)c34)cc2)CC1 [Example 312, 1-(2,6-difluorophenyl)-3-(4-(4-glycoloylpiperazin-1-yl)phenyl)-1,5-dihydro-4H-pyrazolo[4,3-c]pyridin-4-one]
95	100	COCC(=O)N1CCN(c2ccc(-c3nn(-c4c(F)cccc4F)c4cc[nH]c(=O)c34)cc2)CC1 [Example 313, 1-(2,6-difluorophenyl)-3-(4-(4-(methoxyacetyl)piperazin-1-yl)phenyl)-1,5-dihydro-4H-pyrazolo[4,3-c]pyridin-4-one]
99	99	CC(=O)N1CCC(c2ccc(-c3nn(-c4c(F)cccc4F)c4cc[nH]c(=O)c34)cc2)C(F)(F)C1 (stereo not drawn) [Example 316, 3-(4-(1-acetyl-3,3-difluoropiperidin-4-yl)phenyl)-1-(2,6-difluorophenyl)-1,5-dihydro-4H-pyrazolo[4,3-c]pyridin-4-one]
